From patent publication US5391540A, “Substituted pyridine compounds” (Rohm and Haas Company, priority 1993, dated 1995)

Assays:
Test in all cases: Pre-emergent herbicidal activity (Table A)
Format in all cases: in vivo
Velvetleaf = conditions: Abutilon theophrasti, pre-emergence, Vele, 11.2 kg/ha, 10-14 days, read-out: herbicidal rating (% inhibition)
Summary of the method: (§1)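 Percent inhibition per species, scored on a rating scale, after pre-emergent soil incorporation: test compound in acetone or water carrier mixed into cover soil, layered over seeded topsoil or vegetative propagules.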

Canada thistle = conditions: Cirsium arvense, pre-emergence, Cath, 11.2 kg/ha, 10-14 days, read-out: herbicidal rating (% inhibition)
Summary of the method: as §1

Downy Brome = conditions: Bromus tectorum, pre-emergence, Dobr, 11.2 kg/ha, 10-14 days, read-out: herbicidal rating (% inhibition)
Summary of the method: as §1

Yellow Nutsedge = conditions: Cyperus, pre-emergence, Yens, 11.2 kg/ha, 10-14 days, read-out: herbicidal rating (% inhibition)
Summary of the method: as §1

Common Lambsquarters = conditions: Chenopodium album, pre-emergence, Colq, 11.2 kg/ha, 10-14 days, read-out: herbicidal rating (% inhibition)
Summary of the method: as §1

Morningglory = conditions: Ipomoea, pre-emergence, Mogl, 11.2 kg/ha, 10-14 days, read-out: herbicidal rating (% inhibition)
Summary of the method: as §1

Cocklebur = conditions: Xanthium strumarium, pre-emergence, Cobu, 11.2 kg/ha, 10-14 days, read-out: herbicidal rating (% inhibition)
Summary of the method: as §1

Quackgrass = conditions: pre-emergence, Rhqg, 11.2 kg/ha, 10-14 days, read-out: herbicidal rating (% inhibition)
Summary of the method: as §1

Pennsylvania Smartweed = conditions: pre-emergence, Pesw, 11.2 kg/ha, 10-14 days, read-out: herbicidal rating (% inhibition)
Summary of the method: as §1

Rhizome Johnsongrass = conditions: Sorghum halepense, pre-emergence, Rhjg, 11.2 kg/ha, 10-14 days, read-out: herbicidal rating (% inhibition)
Summary of the method: as §1

Barnyardgrass = conditions: Echinochloa crus-galli, pre-emergence, Bygr, 11.2 kg/ha, 10-14 days, read-out: herbicidal rating (% inhibition)
Summary of the method: as §1

Row | Structure (SMILES) | inhibition at 11200 g/ha (Velvetleaf) [%] | inhibition at 11200 g/ha (Canada thistle) [%] | inhibition at 11200 g/ha (Downy Brome) [%] | inhibition at 11200 g/ha (Yellow Nutsedge) [%] | inhibition at 11200 g/ha (Common Lambsquarters) [%] | inhibition at 11200 g/ha (Morningglory) [%] | inhibition at 11200 g/ha (Cocklebur) [%] | inhibition at 11200 g/ha (Quackgrass) [%] | inhibition at 11200 g/ha (Pennsylvania Smartweed) [%] | inhibition at 11200 g/ha (Rhizome Johnsongrass) [%] | inhibition at 11200 g/ha (Barnyardgrass) [%]
1 | CN=C(SC)c1c(OC)nc(C(F)(F)F)c(C(=O)OC)c1CC(C)C [Compound 55, 3-pyridinecarboxylic acid, 6-methoxy-5-[(methylimino)(methylthio)methyl]-4-(2-methylpropyl)-2-(trifluoromethyl)-, methyl ester] | 25 to 49 | 0 to 24 | 75 to 100 | 0 to 24 | 75 to 100 | 25 to 49 | 0 to 24 | 75 to 100 | 75 to 100 | 0 to 24 | 75 to 100
2 | COC(=O)c1c(OC)nc(C(F)(F)F)c(C(=O)SC)c1CC(C)C [Compound 34, 3-pyridinecarboxylic acid, 2-methoxy-4-(2-methylpropyl)-5-[(methylthio)carbonyl]-6-(trifluoromethyl)-, methyl ester] | 50 to 74 | 75 to 100 | 75 to 100 | 75 to 100 | 75 to 100 | 75 to 100 | 75 to 100 | 75 to 100 | 75 to 100 | 75 to 100 | 75 to 100
3 | CCOc1nc(C(F)(F)F)c(C(=O)SC)c(CC(C)C)c1C(=O)OC [Compound 45, 3-pyridinecarboxylic acid, 2-ethoxy-4-(2-methylpropyl)-5-[(methylthio)carbonyl]-6-(trifluoromethyl)-, methyl ester] | 75 to 100 | 75 to 100 | 75 to 100 | 75 to 100 | 75 to 100 | 75 to 100 | 0 to 24 | 75 to 100 | 75 to 100 | 75 to 100 | 75 to 100
4 | COC(=O)c1c(OC)nc(C(F)(F)F)c(C(=O)OC)c1CC(C)C [Compound 2, 3,5-pyridinedicarboxylic acid, 2-methoxy-4-(2-methylpropyl)-6-(trifluoromethyl)-, dimethyl ester] | 75 to 100 | 75 to 100 | 75 to 100 | 75 to 100 | 75 to 100 | 75 to 100 | 75 to 100 | 75 to 100 | 75 to 100 | 75 to 100 | 75 to 100
5 | CCOC(=O)c1c(OC)nc(C(F)(F)Cl)c(C(=O)OC)c1CC(C)C [Compound 29, 3,5-pyridinedicarboxylic acid, 2-(chlorodifluoromethyl)-6-methoxy-4-(2-methylpropyl)-, 5-ethyl 3-methyl ester] | 75 to 100 | 0 to 24 | 75 to 100 | 25 to 49 | 75 to 100 | 75 to 100 | 0 to 24 | 75 to 100 | 75 to 100 | 25 to 49 | 75 to 100
6 | CCOC(=O)c1c(OC)nc(C(F)F)c(C(=O)OC)c1CC(C)C [Compound 26, 3,5-pyridinedicarboxylic acid, 2-(difluoromethyl)-6-methoxy-4-(2-methylpropyl)-, 5-ethyl 3-methyl ester] | 75 to 100 | 75 to 100 | 75 to 100 | 0 to 24 | 75 to 100 | 75 to 100 | 0 to 24 | 75 to 100 | 75 to 100 | 75 to 100 | 75 to 100
7 | COC(=O)c1c(OC)nc(C(F)(F)F)c(C(=O)OC)c1C1CCC1 [Compound 48, 3,5-pyridinedicarboxylic acid, 4-cyclobuty1-2-methoxy-6-(trifluoromethyl)-, dimethyl ester] | 75 to 100 | 75 to 100 | 75 to 100 | 75 to 100 | 75 to 100 | 75 to 100 | 75 to 100 | 75 to 100 | 75 to 100 | 75 to 100 | 75 to 100
